From patent US20220162257A1, “3ALPHA, 5BETA-NEUROACTIVE STEROIDS FOR THE TREATMENT OF EPILEPSY AND SEIZURE DISEASES” (USTAV ORGANICKE CHEMIE A BIOCHEMIE AV CR, V. V. I., priority 2019, published 2022)
Where a name gives a salt, the structure may show the parent alone.

Key:
[1] = tested on: adults and children; settings: clinical studies; cited from earlier work
[2] = tested on: experimental seizures in animal models; settings: cited from earlier work; for effect in experimental seizures: seizures elicited by pentylenetetrazol, pilocarpine, NMDA and kainic acid
[3] = tested on: PTZ-induced seizures in zebrafish (Danio rerio); test: pentetrazol (PTZ)-induced seizures in zebrafish larvae; format: in vivo; settings: 7 dpf larvae, PTZ 5 mmol/L; for epileptiform locomotor activity in the dark phase/light test, sedation: doses of 1, 3 and 5 mg/kg; for locomotor activity epileptiform induced by PTZ (spontaneous locomotor activity, maximum velocity, angle turns): doses of 1, 3 and 5 mg/kg (1, 3 and 5 μmol/L in the source)
Procedure: Adults wild-type (strain AB) zebrafish (Danio rerio) were maintained at 28-29° C. on a light cycle of 14 h light:10h dark (lights on at 7 am; lights off at 9 pm) at ZeClinics animal facility (Barcelona). All procedures involving animals and their care were conducted accordingly to CEA-OH/9421/2 authorization from Government of Catalonia. Embryos obtained by pairwise mating were raised in E3 media at the controlled temperature of 28.5° C. until 7 days post-fertilization (dpf) when the experiments were performed.
The anticonvulsant activity of the claimed compounds on the nervous system of zebrafish (Danio rerio). This test is the modern alternative to tests in adult animals as Danio rerio is very versatile organism that has a number of physiological similarities to mammals, including humans (Expert Opin. Drug Metab. Toxicol. 2009, 5, 393). Steroidal compounds were tested in three concentrations (1, 3 and 5 μmol.L^−1) on 7 days post-fertilization (dpf) wild-type larvae. As a negative control, sibling larvae were incubated with DMSO 1%, which allows us to detect behavioral alterations of PTZ treated larvae. Seizures were induced by treatment of pentetrazol (PTZ) at the dose 5 mmol.L^−1. Commercially available anti-convulsant drug Topiramate was used as comparator. Results were analyzed with GraphPad Prism software and statistical significance is assessed by the One-way ANOVA statistical analysis followed by Tukey's multiple comparisons test. The zebrafish larvae locomotion and response to visual stimuli are traced and analyzed by the EthoVision XT 12 software and the DanioVision device from Noldus Information Technologies, Wageningen, The Netherlands.
This closed system consists of a camera placed above a chamber with circulating water and a temperature sensor that is set at 28° C. Individualized larvae in a 48-wells plate are placed in the chamber, which can provide different stimuli (light/dark environment, tapping, sound) controlled by the software. Prior to each experiment, larvae were left for 10 minutes in dark for acclimation, then predetermined series of alternating dark and light environment are presented to the larvae. The final experimental protocol is divided in three main part: first a 15 minutes step with light on, then a series of 5 short flashes of light to induce epileptic seizures and finally a 25 minutes dark/light alternating environments phase. Different sets of information can be extrapolated from the different phases: while the first step is useful to detect changes in the total larvae locomotion, the second part allows us to analyze the larval response to a seizure-inducing visual stimulus and measure the seizure characteristics: the maximum velocity and the number of angles turns (specific of seizure erratic movement). The final phase is useful to detect anomalies in larval movement and deviations from the stereotyped behavior (natural locomotor behavior of zebrafish is active in dark and immobile in light). The anticonvulsant effect of compounds was studied at doses of […] for the compound shown in Example 1, Example 2 and Example 3.

[4] = tested on: PTZ-induced seizures in 12- and 25-day-old rats; test: PTZ-induced generalized tonic-clonic seizures in immature rats; format: in vivo, rat
Procedure: Anticonvulsant effect of compounds was evaluated in two models of epileptic seizures in immature rats (PTZ model and 6 Hz model). PTZ convulsions were tested in 12- and 25-day-old rats, 6 Hz-induced seizures in 15- and 25-day-old rats. Young adult rats (P60) were also used in either test. Day of birth was taken as P0. Experiments evaluating precognitive effect were performed in adult male rats of the Wistar and Long Evans strain (3 months old, b.w. 300-400 g). All animals were obtained from a breeding facility of Institute of Physiology CAS (certificate No. 1396/2014-MZE-17214) Animals were held in standard conditions (21±1° C., humidity 50-60%, light regime 12/12) with unrestricted access to food and water. All manipulations with animals were performed according to the https://nc3rs.org.uk/arrive-guidelines and to Czech Animal Protection Law 246/1992 Sb. And international directives (EU Directive 2010/63/EU for animals' experiments).
Two age groups of immature male Wistar rats were used in either experiment. In PTZ model P12 corresponding by a maturation of the brain to early postnatal human babies, i.e. to the period where children epileptic encephalopathy mostly resistant to present pharmacotherapy start to appear. The other group—P25 animals corresponds with school-age children. Generalized tonic-clonic seizures were elicited by a subcutaneous injection of PTZ in a dose of 100 mg/kg. The 6 Hz model was tested in P15 (at this age eyes are open and it is not necessary to surgically distract lids). Biphasic pulses with […] were applied transcorneally for 3 s by a constant current stimulator of Ugo Basile company. PTZ induced generalized seizures represent a model of human generalized tonic-clonic seizures, seizures elicited by 6 Hz stimulation are generally taken as a model of temporal (psychomotor, complex partial) seizures. Differences in latencies and seizure severity were evaluated by ANOVA with a subsequent pairwise comparison by Holm-Sidak test. Incidence of seizures were evaluated by Fischer exact test. Critical p value was set at p=0.05.
Anticonvulsant effect was studied in 12- and 25-day-old male Wistar rats. Steroid derivatives were administered at doses of 1, 5 and 10 mg/kg i.p. 20 min before the administration of PTZ (100 mg/kg s.c.).

[5] = both age groups (P12, P25), 5 and 10 mg/kg i.p.

**Q.** For `C[C@]12CC[C@@H](OC(=O)C3CCC(=O)N3)C[C@H]1CC[C@@H]1[C@@H]2CC[C@]2(C)C(=O)CC[C@@H]12` (stereo partly shown), which melting point is on record?
**A.** 114 to 116 °C

**Q.** For `C[C@H]1CC[C@H]2[C@@H]3CC[C@@H]4C[C@H](OC(=O)C5CCC(=O)N5)CC[C@]4(C)[C@H]3CC[C@]12C` (stereo partly shown), which melting point is on record?
**A.** 157 to 158 °C

**Q.** For `CC(=O)[C@H]1CC[C@H]2[C@@H]3CC[C@H]4C[C@](C)(O)CC[C@]4(C)[C@H]3CC[C@]12C` [Ganaxolone], which tolerability [1] is on record?
**A.** good tolerability in adults as well as children

**Q.** And the generation of seizures ([2]; rodents)?
**A.** able to prevent generation of seizures in rodents

**Q.** With `C/C=C1/CC[C@H]2[C@@H]3CC[C@@H]4C[C@H](OC(=O)C5CCC(=O)N5)CC[C@]4(C)[C@H]3CC[C@]12C` (stereo partly shown) as the molecule, how does the melting point read?
**A.** 155 to 157 °C

**Q.** Which results are given for `CC(=O)[C@H]1CC[C@H]2[C@@H]3CC[C@@H]4C[C@H](OC(=O)C5CCCC(=O)N5)CC[C@]4(C)[C@H]3CC[C@]12C` (stereo partly drawn) [Example 2, (3R,5R,8R,9S,10S,13S,14S,17S)-17-Acetyl-10,13-dimethylhexadecahydro-1H-cyclopenta[a]phenantren-3-yl 6-oxopiperidine-2-carboxylate]?
**A.** epileptiform locomotor activity in the dark phase/light test, sedation [3]: decreased epileptiform locomotor activity in the dark phase/light test without causing sedation; locomotor activity epileptiform induced by PTZ (spontaneous locomotor activity, maximum velocity, angle turns) [3]: significantly reduced the locomotor activity epileptiform induced by PTZ; incidence of GTCS [4, 5]: suppressed significantly; seizure severity [4, 5]: suppressed significantly

**Q.** Which melting point does the source give for `CC(=O)NCC(=O)O[C@@H]1CC[C@@]2(C)[C@H](CC[C@@H]3[C@@H]2CC[C@]2(C)[C@@H](C(C)=O)CC[C@@H]32)C1` here?
**A.** 111 to 113 °C

**Q.** With `C[C@@]12CCC[C@H]1[C@@H]1CC[C@@H]3C[C@H](OC(=O)C4CCC(=O)N4)CC[C@]3(C)[C@H]1CC2` (stereo partly shown) as the molecule, how does the melting point read?
**A.** 136 to 137 °C

**Q.** For `C[C@@]12CCC[C@H]1[C@@H]1CC[C@@H]3C[C@H](OCCOC(=O)C4CCC(=O)N4)CC[C@]3(C)[C@H]1CC2` (stereo partly shown), which melting point is on record?
**A.** 110 to 111 °C

**Q.** For `C[C@@]12CCC[C@H]1[C@@H]1CC[C@@H]3C[C@H](OC(=O)C4CCCC(=O)N4)CC[C@]3(C)[C@H]1CC2` (stereo partly shown), which melting point is on record?
**A.** 109 to 111 °C

**Q.** Which melting point does the source give for `C[C@@]12CCC[C@H]1[C@@H]1CC[C@@H]3C[C@H](OCCOC(=O)C4CCCC(=O)N4)CC[C@]3(C)[C@H]1CC2` (stereo partly shown) here?
**A.** 117 to 119 °C

**Q.** Which melting point does the source give for `C[C@]12CC[C@@H](OC(=O)C3CCCC(=O)N3)C[C@H]1CC[C@@H]1[C@@H]2CC[C@]2(C)[C@@H](C#N)CC[C@@H]12` (stereo partly shown) here?
**A.** 69 to 71 °C

**Q.** With `CC(=O)[C@H]1CC[C@H]2[C@@H]3CCC4=C[C@@H](OC(=O)[C@@H]5CCCN5)CC[C@]4(C)[C@H]3CC[C@]12C` [PI-33, 3β-L-proline-progesterone-HCl, reference compound] as the molecule, how does the “incidence of generalized tonic-clonic seizures” value ([4]; 1 and 10 mg/kg doses) read?
**A.** did not change incidence of generalized tonic-clonic seizures

**Q.** With `CC(=O)[C@H]1CC[C@H]2[C@@H]3CCC4=CC(=O)CC[C@]4(C)[C@H]3CC[C@]12C` [PROG, pregn-4-en-3,20-dione] as the molecule, how does the “effect in experimental seizures” value [2] read?
**A.** significant effect

**Q.** What does the source list for `C[C@]12CC[C@@H](OC(=O)C3CCC(=O)N3)C[C@H]1CC[C@@H]1[C@@H]2CC[C@]2(C)[C@@H](C#N)CC[C@@H]12` (stereo partly drawn) [Example 3, (3R,5R,8R,9S,10S,13S,14S,17S)-17-Cyano-10,13-dimethylhexadecahydro-1H-cyclopenta[a]phenanthren-3-yl 5-oxopyrrolidine-2-carboxylate]?
**A.** epileptiform locomotor activity in the dark phase/light test, sedation [3]: decreased epileptiform locomotor activity in the dark phase/light test without causing sedation; locomotor activity epileptiform induced by PTZ (spontaneous locomotor activity, maximum velocity, angle turns) [3]: significantly reduced the locomotor activity epileptiform induced by PTZ; incidence of GTCS ([4]; P12 rats, 1, 5, 10 mg/kg i.p.): significantly affected only by the 5-mg/kg dose; incidence of GTCS ([4]; P25 rats, 5 and 10 mg/kg i.p.): suppressed incidence of GTCS

**Q.** For `CC(=O)[C@H]1CC[C@H]2[C@@H]3CC[C@@H]4C[C@H](OC(=O)C5CCC(=O)N5)CC[C@]4(C)[C@H]3[C@H](O)C[C@]12C` (stereo partly shown), which melting point is on record?
**A.** 183 to 185 °C

**Q.** What does the source list for `CC(=O)[C@H]1CC[C@H]2[C@@H]3CC[C@H]4C[C@H](O)CC[C@]4(C)[C@H]3CC[C@]12C` [ALLO, 20-oxo-5α-pregnan-3α-ol]?
**A.** frequency of seizures, mortality and cellular death ([2]; animal models of epilepsy): deceases frequency of seizures, mortality and cellular death; effect in experimental seizures [2]: significant effect

**Q.** With `CC(=O)[C@H]1CC[C@H]2[C@@H]3CC[C@H]4C[C@@H](OC(=O)[C@@H]5CCC(=O)N5)CC[C@]4(C)[C@H]3CC[C@]12C` [Allopregnanolone (S)-5-oxopyrrolidin-2-carboxylate, reference compound] as the molecule, how does the “action against generalized tonic-clonic seizures” value ([4]; PTZ 100 mg/kg s.c., 12- and 25-day-old rats) read?
**A.** only a moderate action
